pKi: −log10 of the molar value.

The assay in a line: Binding affinity at imidazoline receptor I-1 of rat.

What is called pKi is the Ki on a negative log10 scale, so that one unit is a factor of ten. As for `Brc1cccc2c3c([nH]c12)CNCC3` [8-Bromo-2,3,4,9-tetrahydro-1H-beta-carboline], the negative logarithm of the Ki (pKi) is 5.43.

These data come from BindingDB's records for doi:10.1016/j.bmcl.2003.11.078 (Virginia Commonwealth University, 2004).
